The record followed here is ChEMBL document CHEMBL1155111, “Identification of a potent, selective, and orally active leukotriene a4 hydrolase inhibitor with anti-inflammatory activity” (J Med Chem, 2008).

Series [1] can be described thus: Bioavailability in Beagle dog at 30 mg/kg, po. The class given is ADME, organism-based, Canis lupus familiaris. The settings on record: in vivo.
Series [2] can be described thus: Solubility at pH 7.4. The class given is physicochemical. To be noted: buffer.
Series [3] is described as follows: Clearance in Beagle dog at 3 mg/kg, iv. To be noted: in vivo. Also noted: dose 3 mg/kg, route intravenous. The class given is ADME, organism-based, Canis lupus familiaris.
Series [4] can be described thus: Chemical stability assessed as half life of hydrolysis at pH 7.4. The class given is physicochemical. To be noted: buffer.
Series [5] in a line: Volume of distribution at steady state in Beagle dog at 3 mg/kg, iv. The class given is ADME, organism-based, Canis lupus familiaris. Also on record: dose 3 mg/kg, route intravenous. The settings on record: in vivo, read-out: Vdss.
Series [6] can be described thus: Bioavailability in rat at 30 mg/kg, po. The class given is ADME, organism-based. The settings on record: in vivo.
A short description of series [7]: Chemical stability assessed as half life of hydrolysis at pH 2. The class given is physicochemical. The settings on record: buffer.
Series [8] in a line: Clearance in rat at 3 mg/kg, iv. The class given is ADME, organism-based. Also noted: dose 3 mg/kg, route intravenous. The settings on record: in vivo.
Series [9] in a line: AUC (0 to infinity) in Beagle dog at 30 mg/kg, po. The settings on record: plasma. Also noted: time infinity, dose 30 mg/kg, route oral. The class given is ADME, organism-based, Canis lupus familiaris.
The nature of series [10]: AUC (0 to infinity) in rat at 3 mg/kg, iv. To be noted: plasma. Also noted: time infinity, dose 3 mg/kg, route intravenous. The class given is ADME, organism-based.
Series [11] in a line: Metabolic stability in rat liver S9 fraction assessed as elimination half life. The class given is ADME, subcellular.
Series [12] is described as follows: Metabolic stability in human liver microsomes assessed as elimination half life. The class given is ADME, Microsome.
A short description of series [13]: Half life in Beagle dog plasma at 30 mg/kg, po. The class given is ADME, organism-based, Canis lupus familiaris. Also on record: dose 30 mg/kg, route oral.
Series [14] in a line: Cmax in rat at 30 mg/kg, po. The class given is ADME, organism-based. Also on record: dose 30 mg/kg, route oral. To be noted: in vivo.
Series [15] is described as follows: Metabolic stability in dog liver S9 fraction assessed as elimination half life. The class given is ADME, subcellular, Canis lupus familiaris.
Series [16] is described as follows: Half life in Beagle dog plasma at 3 mg/kg, iv. The class given is ADME, organism-based, Canis lupus familiaris. Also on record: dose 3 mg/kg, route intravenous.
Series [17] in a line: Tmax in Beagle dog at 30 mg/kg, po. The class given is ADME, organism-based, Canis lupus familiaris. Also noted: dose 30 mg/kg, route oral. The settings on record: in vivo.
Series [18] can be described thus: Metabolic stability in mouse liver S9 fraction assessed as elimination half life. The class given is ADME, subcellular.
The nature of series [19]: Terminal elimination half life in rat plasma at 30 mg/kg, po. The class given is ADME, organism-based. Also noted: dose 30 mg/kg, route oral.
Series [20] can be described thus: Cmax in Beagle dog at 3 mg/kg, iv. Also on record: dose 3 mg/kg, route intravenous. The class given is ADME, organism-based, Canis lupus familiaris. The settings on record: in vivo.
Series [21] can be described thus: AUC (0 to infinity) in Beagle dog at 3 mg/kg, iv. The class given is ADME, organism-based, Canis lupus familiaris. The settings on record: plasma. Also noted: time infinity, dose 3 mg/kg, route intravenous.
A short description of series [22]: Tmax in rat at 30 mg/kg, po. The class given is ADME, organism-based. Also on record: dose 30 mg/kg, route oral. The settings on record: in vivo.
The nature of series [23]: Volume of distribution at steady state in rat at 3 mg/kg, iv. The class given is ADME, organism-based. Also noted: dose 3 mg/kg, route intravenous. The settings on record: in vivo, read-out: Vdss.
The nature of series [24]: Cmax in rat at 3 mg/kg, iv. To be noted: in vivo. The class given is ADME, organism-based. Also noted: dose 3 mg/kg, route intravenous.
Series [25] in a line: Cmax in Beagle dog at 30 mg/kg, po. The class given is ADME, organism-based, Canis lupus familiaris. Also noted: dose 30 mg/kg, route oral. The settings on record: in vivo.
Series [26] can be described thus: Half life in rat plasma at 3 mg/kg, iv. The class given is ADME, organism-based. Also on record: dose 3 mg/kg, route intravenous.
Series [27] can be described thus: AUC (0 to infinity) in rat at 30 mg/kg, po. Also on record: time infinity, dose 30 mg/kg, route oral. The class given is ADME, organism-based. The settings on record: plasma.
Series [28] in a line: Half life in Beagle dog plasma at 2 mg/kg, iv. The class given is ADME, organism-based, Canis lupus familiaris. Also on record: dose 2 mg/kg, route intravenous.
A short description of series [29]: Tmax in rat at 10 mg/kg, po. The class given is ADME, organism-based. Also on record: dose 10 mg/kg, route oral. To be noted: in vivo.
Series [30] in a line: AUC (0 to infinity) in rat at 2 mg/kg, iv. The class given is ADME, organism-based. Also on record: time infinity, dose 2 mg/kg, route intravenous. The settings on record: plasma.
The nature of series [31]: Half life in rat plasma at 2 mg/kg, iv. The class given is ADME, organism-based. Also noted: dose 2 mg/kg, route intravenous.
A short description of series [32]: Bioavailability in Beagle dog at 10 mg/kg, po. The class given is ADME, organism-based, Canis lupus familiaris. To be noted: in vivo.
Series [33] is described as follows: AUC (0 to infinity) in rat at 10 mg/kg, po. The settings on record: plasma. The class given is ADME, organism-based. Also on record: time infinity, dose 10 mg/kg, route oral.
Series [34] in a line: Terminal elimination half life in rat plasma at 10 mg/kg, po. The class given is ADME, organism-based. Also on record: dose 10 mg/kg, route oral.
Series [35] in a line: AUC (0 to infinity) in Beagle dog at 10 mg/kg, po. The class given is ADME, organism-based, Canis lupus familiaris. Also on record: time infinity, dose 10 mg/kg, route oral. To be noted: plasma.
A short description of series [36]: Half life in Beagle dog plasma at 10 mg/kg, po. The class given is ADME, organism-based, Canis lupus familiaris. Also on record: dose 10 mg/kg, route oral.
A short description of series [37]: Cmax in rat at 2 mg/kg, iv. Also noted: dose 2 mg/kg, route intravenous. The class given is ADME, organism-based. The settings on record: in vivo.
Series [38] in a line: Tmax in Beagle dog at 10 mg/kg, po. The class given is ADME, organism-based, Canis lupus familiaris. Also on record: dose 10 mg/kg, route oral. The settings on record: in vivo.
A short description of series [39]: Volume of distribution at steady state in rat at 2 mg/kg, iv. The class given is ADME, organism-based. Also noted: dose 2 mg/kg, route intravenous. To be noted: in vivo, read-out: Vdss.
A short description of series [40]: Cmax in Beagle dog at 10 mg/kg, po. The class given is ADME, organism-based, Canis lupus familiaris. Also noted: dose 10 mg/kg, route oral. The settings on record: in vivo.
Series [41] can be described thus: Volume of distribution at steady state in Beagle dog at 2 mg/kg, iv. Also on record: dose 2 mg/kg, route intravenous. The settings on record: in vivo, read-out: Vdss. The class given is ADME, organism-based, Canis lupus familiaris.
A short description of series [42]: Cmax in rat at 10 mg/kg, po. The class given is ADME, organism-based. Also noted: dose 10 mg/kg, route oral. The settings on record: in vivo.
The nature of series [43]: Cmax in Beagle dog at 2 mg/kg, iv. The class given is ADME, organism-based, Canis lupus familiaris. Also noted: dose 2 mg/kg, route intravenous. The settings on record: in vivo.
The nature of series [44]: Bioavailability in rat at 10 mg/kg, po. The class given is ADME, organism-based. The settings on record: in vivo.
Series [45] is described as follows: Clearance in rat at 2 mg/kg, iv. The settings on record: in vivo. The class given is ADME, organism-based. Also noted: dose 2 mg/kg, route intravenous.
Series [46] can be described thus: AUC (0 to infinity) in Beagle dog at 2 mg/kg, iv. To be noted: plasma. The class given is ADME, organism-based, Canis lupus familiaris. Also on record: time infinity, dose 2 mg/kg, route intravenous.
The nature of series [47]: Clearance in Beagle dog at 2 mg/kg, iv. The class given is ADME, organism-based, Canis lupus familiaris. Also noted: dose 2 mg/kg, route intravenous. The settings on record: in vivo.

Values after ≈ are worked out from the molar mass of the structure shown.

On to `c1ccc2oc(Oc3ccc(OCCN4CCCCC4)cc3)nc2c1`, for which the values for the bioavailability in series [1] and in series [6] were 11% and 31%, respectively. In series [2], this molecule yielded a solubility of 160 µg/mL (≈ 473 µM). Moreover, the clearance in series [3] is 13 mL/min; in series [8], 9.5 mL/min. The half-life in series [4] was more than 16.7 h; in series [7], 1.5 h; in series [11], more than 1.67 h; in series [12], more than 1.67 h; in series [13], 2.3 h; in series [15] it was 0.9 h. Besides, the half-life in [16] was 1 h; in series [18] it was 0.667 h; in [19] it was 5.2 h; in series [26], 2.6 h. Besides, the Vd was found to be 3.2 L/kg in series [5] and 7 L/kg in [23]. In addition, the AUC(0-inf) is 4.2 µM·h in series [9], 4.8 µM·h in [10], 3.9 µM·h in series [21] and 15 µM·h in series [27]. Besides, the Cmax in series [14] was determined as 1100 nM; in series [20] it was 4500 nM; in series [24] it was 3800 nM; in series [25], 1200 nM. Further, the values for the Tmax in [17] and in [22] were 2.3 h and 4.6 h, respectively.

In the case of `O=C(CO)NC1CCN(Cc2ccc(Oc3nc4ccccc4s3)cc2)CC1`, the half-life in series [28] was 3.6 h; in series [31], 3.5 h; in series [34], 5.6 h; in series [36] it was 6.9 h. Moreover, the Tmax in [29] was found to be 5.3 h; in series [38], 1 h. The AUC(0-inf) in series [30] turned out to be 10 µM·h; in series [33], 33 µM·h; in [35], 60.3 µM·h; in series [46] it was 8 µM·h. Moreover, the bioavailability in [32] worked out at 150%; in series [44], 65%. Further, the Cmax in series [37] was 2200 nM; in series [40], 26000 nM; in series [42], 2200 nM; in series [43], 2800 nM. Moreover, the Vd was found to be 2.5 L/kg in [39] and 3.2 L/kg in [41]. The clearance in series [45] is 3 mL/min; in [47] it was 93.3 mL/min.
